As a reminder, the Ki is the dissociation constant of the complex between target and ligand, obtained from inhibition or displacement. Low readings indicate higher affinity, high ones lower affinity.

Common to all, as to assay type: biochemical
Assay [1] has as its target T1, thrombin (Homo sapiens, UniProt P00734).
T1 construct: FXa (5 nM) and thrombin (5 nM)
The experiment in a line: Determination of selectivity: thrombin inhibition (chromogenic substrate GPR). The settings on record: fold selectivity for FXIIa over thrombin (human); category. The method, then: (§1) The activities of the compounds of the invention have been determined in vitro using the following assays protocols for the screening of activity of FXIIa and other proteases. Each of these assays were performed in a purified system employing the use of chromogenic assays in microplate plate wells. Chromogenic peptide substrates mimicking natural protein substrates are attached via an amide bond to a chromogenic group. Paranitroaniline (pNA) is released from the peptide following catalyses by the proteolytic enzyme; the absorbance increases and can be monitored at 405 nm.
(§2) All compounds were dissolved in 100% (v/v) DMSO to a stock concentration of 10 mM, the highest concentration of compound used in each assay is 500 μM. The final concentrations of DMSO were 5% (v/v) in 50 mM Tris 137 mM NaCl pH 7.4. Where no test compound was added a final concentration of 5% DMSO was employed.
(§3) To determine selectivity of test compounds, these test compounds were assayed for inhibitory activity against other serine proteases including FXa and thrombin. Essentially compounds at increasing concentrations were incubated with each enzyme: FXa (5 nM) and thrombin (5 nM), for 10 mins at 37° C. followed by the appropriate chromogenic substrate, S2765 (Chromogenix) and GPR (Bachem) respectively in 50 mM Tris, 137 mM NaCl, pH 7.4. Substrates were used at a concentration equal to the appropriate experimentally derived KM. Kinetic readings at 405 nm were monitored every 12 secs for a total duration of 3 hours at 37° C. Gradients of initial rates were determined and employed to calculate IC50 values. Values of IC50 were converted to Ki values based on the formula:
(§4) Ki═IC50/(1+[Substrate]/Km)
(§5) Where [Substrate] denotes the concentration of substrate used in the assay and Km is the determined value of each enzyme with its own substrate.
The fold selectivity for FXIIa over thrombin for the compounds of the invention has been categorised based on the fold selectivity values, the categories being “+”, “++” and “+++”. The category “+” refers to fold selectivity values less than 10 (e.g. a fold selectivity value of less than 10 and greater than 1). The category “++” refers to a fold selectivity value of 10 to 100. The category “+++” refers to fold selectivity values greater than 100.

In assay [2] the target is FXa (Homo sapiens, UniProt P00742). The experiment in a line: Determination of selectivity: FXa inhibition (chromogenic substrate S2765). As to conditions: fold selectivity for FXIIa over FXa (human); category. How it is done:
as §1, §2, §3, §4, §5
The fold selectivity for FXIIa over FXa for the compounds of the invention has been categorised based on the fold selectivity values, the categories being “o”, “oo” and “ooo”. The category “o” refers to fold selectivity values less than 10 (e.g. a fold selectivity value of less than 10 and greater than 1). The category “oo” refers to a fold selectivity value of 10 to 100. The category “ooo” refers to fold selectivity values greater than 100.

Assay [3] has as its target T2, FXIIa (Homo sapiens, UniProt P00748).
T2 construct: FXIIa alpha
T2 sequence (P00748 373-615 limits assumed): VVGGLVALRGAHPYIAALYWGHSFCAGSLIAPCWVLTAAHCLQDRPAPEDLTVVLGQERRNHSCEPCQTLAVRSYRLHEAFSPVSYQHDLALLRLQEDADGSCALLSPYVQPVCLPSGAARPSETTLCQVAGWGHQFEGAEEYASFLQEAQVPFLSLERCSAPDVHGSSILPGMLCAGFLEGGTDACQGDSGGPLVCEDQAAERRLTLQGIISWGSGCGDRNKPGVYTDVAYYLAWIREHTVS
T2 sequence (P00748 20-372 partner limits assumed): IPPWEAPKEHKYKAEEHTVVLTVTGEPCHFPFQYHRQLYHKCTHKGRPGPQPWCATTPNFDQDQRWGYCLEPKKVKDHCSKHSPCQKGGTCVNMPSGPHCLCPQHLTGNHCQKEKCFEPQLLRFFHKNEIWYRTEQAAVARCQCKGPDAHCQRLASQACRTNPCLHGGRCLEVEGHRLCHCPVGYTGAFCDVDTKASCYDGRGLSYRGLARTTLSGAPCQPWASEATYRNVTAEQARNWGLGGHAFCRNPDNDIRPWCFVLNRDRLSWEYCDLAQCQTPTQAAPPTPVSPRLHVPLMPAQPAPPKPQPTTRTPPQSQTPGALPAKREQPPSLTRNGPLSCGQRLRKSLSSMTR
Description: Determination of Factor XIIa inhibition (chromogenic substrate S-2302). The settings on record: human FXIIa alpha, Ki category. How it is done: as §1, §2
Factor XIIa activity was measured using a chromogenic substrate S-2302 (Chromogenix). Various concentrations of compound were incubated with 10 nM of FXIIa and incubated at 37° C. for 10 minutes in 50 mM Tris, 137 mM NaCl, pH 7.4, prior to the addition of the chromogenic substrate S-2302 at a concentration equal the to the experimentally derived KM. Kinetic readings at 405 nm were monitored every 12 secs for a total duration of 3 hours at 37° C. Gradients of initial rates were determined and employed to calculate IC50 values.
The activity of the compounds of the invention has been categorised based on the Ki values, the categories being “†”, “*”, “**” and “***”. […] The category “**” refers to compounds with a Ki value of 0.2 μM to 0.8 μM.
as §4, §5

FXa, sequence (P00742 235-488 limits assumed): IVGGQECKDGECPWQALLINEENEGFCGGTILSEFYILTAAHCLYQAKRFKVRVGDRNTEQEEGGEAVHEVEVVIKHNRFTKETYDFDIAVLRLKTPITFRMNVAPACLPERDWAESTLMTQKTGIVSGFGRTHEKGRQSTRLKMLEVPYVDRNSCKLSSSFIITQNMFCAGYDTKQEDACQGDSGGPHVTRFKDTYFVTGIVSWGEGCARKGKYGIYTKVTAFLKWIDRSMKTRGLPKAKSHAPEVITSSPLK
FXa, sequence (P00742 41-179 partner limits assumed): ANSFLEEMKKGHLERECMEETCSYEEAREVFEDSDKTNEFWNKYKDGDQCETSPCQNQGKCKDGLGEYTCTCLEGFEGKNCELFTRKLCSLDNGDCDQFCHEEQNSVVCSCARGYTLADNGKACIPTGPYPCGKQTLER

Consider `Cn1nnc2cc(CNC(=O)[C@@H]3C[C@@H](Cc4cccc5ccccc45)CN3C(=O)[C@@H]3NCCC[C@@H]3C(=O)N3CCCC3)ccc21` [Example M05877, (2S,4R)-N-((1-methyl-1H-benzo[d][1,2,3]triazol-5-yl)methyl)-4-(naphthalen-1-ylmethyl)-1-((2R,3S)-3-(pyrrolidine-1-carbonyl)piperidine-2-carbonyl)pyrrolidine-2-carboxamide], for which, in assay [1], the “Thrombin (human)/FXIIa alpha (human)” value is given as “+++ (fold selectivity values greater than 100)”. Besides, in assay [2], the “FXa (human)/FXIIa alpha (human)” value is on record as “∘∘∘”. The inhibitory constant (Ki) in assay [3] was < 200 nM.
Consider `Cn1ncc2cc(CNC(=O)[C@@H]3C[C@@H](Cc4ccccc4C(F)(F)F)CN3C(=O)[C@@H]3NCCC[C@@H]3C(=O)N3CCCC3)ccc21` [Example M05809, (2S,4R)-N-((1-methyl-1H-indazol-5-yl)methyl)-1-((2R,3S)-3-(pyrrolidine-1-carbonyl)piperidine-2-carbonyl)-4-(2-(trifluoromethyl)benzyl)pyrrolidine-2-carboxamide], for which the “Thrombin (human)/FXIIa alpha (human)” value in assay [1] is “+++ (fold selectivity values greater than 100)”. In addition, the “FXa (human)/FXIIa alpha (human)” value in assay [2] is given as “∘∘∘”. This molecule showed a Ki in assay [3] of 200 to 800 nM.
Consider `Cc1ccc(C[C@@H]2C[C@@H](C(=O)NCc3ccn4c(C(F)F)nnc4c3)N(C(=O)[C@@H]3NCCC[C@@H]3C(=O)N3CCCC3)C2)cc1` [Example M05985, (2S,4R)-N-[[3-(difluoromethyl)-[1,2,4]triazolo[4,3-a]pyridin-7-yl]methyl]-4-(p-tolylmethyl)-1-[(2R,3S)-3-(pyrrolidine-1-carbonyl)piperidine-2-carbonyl]pyrrolidine-2-carboxamide], for which, in assay [3], the Ki was 800 to 5000 nM.
As for `Cc1ccc(C[C@@H]2C[C@@H](C(=O)NCc3ccc4c(cnn4C)c3)N(C(=O)[C@@H]3NCCC[C@@H]3C(=O)N(C)C)C2)cc1` [Example M05751, (2R,3S)-N,N-dimethyl-2-((2S,4R)-2-(((1-methyl-1H-indazol-5-yl)methyl)carbamoyl)-4-(4-methylbenzyl)pyrrlidine-1-carbonyl)piperidine-3-carboxamide], the “Thrombin (human)/FXIIa alpha (human)” value in assay [1] is “+++ (fold selectivity values greater than 100)”. Besides, the “FXa (human)/FXIIa alpha (human)” value in assay [2] is reported as “∘∘∘”. This molecule gave a Ki in assay [3] of 200 to 800 nM.
The like results for `Cc1ccc(C[C@@H]2C[C@@H](C(=O)NCc3ccc4c(cnn4C)c3)N(C(=O)[C@@H]3NCCC[C@@H]3C(=O)N3CCCCC3)C2)cc1` [Example M05733, (2S,4R)-N-((1-methyl-1H-indazol-5-yl)methyl)-4-(4-methylbenzyl)-1-((2R,3S)-3-(piperidine-1-carbonyl)piperidine-2-carbonyl)pyrrolidine-2-carboxamide] were, in that order, “++ (a fold selectivity value of 10 to 100)”, “∘∘∘” and < 200 nM.
Turning to `Cc1ccc(C[C@@H]2C[C@@H](C(=O)NCc3ccc4c(cnn4C)c3)N(C(=O)[C@@H]3NCCC[C@@H]3C(=O)N(C)CCN(C)CCF)C2)cc1` [Example M06131, (2R,3S)-N-(2-((2-fluoroethyl)(methyl)amino)ethyl)-N-methyl-2-((2S,4R)-2-(((1-methyl-1H-indazol-5-yl)methyl)carbamoyl)-4-(4-methylbenzyl)pyrrolidine-1-carbonyl)piperidine-3-carboxamide], the “Thrombin (human)/FXIIa alpha (human)” value in assay [1] is on record as “+++ (fold selectivity values greater than 100)”. The “FXa (human)/FXIIa alpha (human)” value in assay [2] is listed as “∘∘∘”. Besides, in assay [3], the inhibitory constant (Ki) was < 200 nM.
In the same order, the values of `Cc1ccc(C[C@@H]2C[C@@H](C(=O)NCC3CCn4c(nnc4C(F)(F)F)C3)N(C(=O)[C@@H]3NCCC[C@@H]3C(=O)N3CCCC3)C2)cc1` (some centres unmarked) [Example M05851] are “+++ (fold selectivity values greater than 100)”, “∘∘∘” and 800 to 5000 nM.
As to `Cc1ccc(C[C@@H]2C[C@@H](C(=O)NCc3ccc4c(cnn4C)c3)N(C(=O)[C@@H]3NCCC[C@@H]3C(=O)N(C)C3CCN(C)C3)C2)cc1` (stereo partly drawn) [Example M06033, (2R,3S)-N-methyl-2-((2S,4R)-2-(((1-methyl-1H-indazol-5-yl)methyl)carbmoyl)-4-(4-methylbenzyl)pyrrolidine-1-carbonyl)-N-(1-methylpyrrolidin-3-yl)piperidine-3-carboxamide], in assay [1], the “Thrombin (human)/FXIIa alpha (human)” value is recorded as “+++ (fold selectivity values greater than 100)”. Besides, the “FXa (human)/FXIIa alpha (human)” value in assay [2] was “∘∘∘”. For the same molecule, in assay [3], the inhibition constant Ki was < 200 nM.
Regarding `Cc1ccc(C[C@@H]2C[C@@H](C(=O)NCc3ccc4c(cnn4C)c3)N(C(=O)[C@@H]3NCCC[C@@H]3C(=O)N3CCCC3)C2)s1` [Example M06030, (2S,4S)-N-((1-methyl-1H-indazol-5-yl)methyl)-4-((5-methylthiophen-2-yl)methyl)-1-((2R,3S)-3-(pyrrolidine-1-carbonyl)piperidine-2-carbonyl)pyrrolidine-2-carboxamide], the “Thrombin (human)/FXIIa alpha (human)” value in assay [1] is reported as “++ (a fold selectivity value of 10 to 100)”. In assay [2], the “FXa (human)/FXIIa alpha (human)” value is given as “∘∘∘”. Also, in assay [3], the Ki fell in the range of 200 to 800 nM.
Take `Cn1nnc2cc(CNC(=O)[C@@H]3C[C@@H](Cc4ccc(C5(F)CC5)cc4)CN3C(=O)[C@@H]3NCCC[C@@H]3C(=O)N3CCCC3)ccc21` [Example M06068, (2S,4R)-4-[[4-(1-fluorocyclopropyl)phenyl]methyl]-N-[(1-methylbenzotriazol-5-yl)methyl]-1-[(2R,3S)-3-(pyrrolidine-1-carbonyl)piperidine-2-carbonyl]pyrrolidine-2-carboxamide]: the “FXa (human)/FXIIa alpha (human)” value in assay [2] was “∘∘∘”. For the same molecule, the inhibition constant Ki in assay [3] lay in the range of 800 to 5000 nM.
In the same order, the values of `Cn1nnc2cc(CNC(=O)[C@@H]3C[C@@H](Cc4ccc(C5CC5)nc4)CN3C(=O)[C@@H]3NCCC[C@@H]3C(=O)N3CCC[C@@H]3C(F)(F)F)ccc21` [Example M06070, (2S,4R)-4-[(6-cyclopropyl-3-pyridyl)methyl]-N-[(1-methylbenzotriazol-5-yl)methyl]-1-[(2R,3S)-3-[(2R)-2-(trifluoromethyl)pyrrolidine-1-carbonyl]piperidine-2-carbonyl]pyrrolidine-2-carboxamide] are “∘∘∘” and 200 to 800 nM.
`Cn1ncc2cc(CNC(=O)[C@@H]3C[C@@H](Cc4ccn(C5CC5)n4)CN3C(=O)[C@@H]3NCCC[C@@H]3C(=O)N3CCCC3)ccc21` [Example M05983, (2S,4S)-4-((1-cyclopropyl-1H-pyrazol-3-yl)methyl)-N-((1-methyl-1H-indazol-5-yl)methyl)-1-((2R,3S)-3-(pyrrolidine-1-carbonyl)piperidine-2-carbonyl)pyrrolidine-2-carboxamide]: the “FXa (human)/FXIIa alpha (human)” value in assay [2] is given as “∘∘∘”. For the same molecule, the Ki in assay [3] lay in the range of 800 to 5000 nM.
With `Cc1ccc(C[C@@H]2C[C@@H](C(=O)NCCCc3cnn(C)c3)N(C(=O)[C@@H]3NCCC[C@@H]3C(=O)N3CCC[C@@H]3C(F)(F)F)C2)cc1` [Example M06077], the inhibition constant Ki in assay [3] lay within 800 to 5000 nM.

For the origin of these results see patent US20240294498A1, “FACTOR XIIA INHIBITORS” (Lunac Therapeutics Ltd, priority 2021, published 2024).
